Assay results: ChEMBL document CHEMBL6083220, “Chemically induced degradation of PRC2 complex by EZH2-Targeted PROTACs via a Ubiquitin-Proteasome pathway” (Bioorg Med Chem Lett, 2024)
Calls of active or inactive are those of the source. The rule behind the calls is not given here.

Columns and labels:
[1] = Tmax in ICR mouse at 10 mg/kg, po; type: ADME, organism-based; conditions: in vivo
[2] = target: Polycomb protein EED (Homo sapiens) (UniProt O75530); experiment: Binding affinity to EED in human MINO cells assessed as increase in thermal stability at 5 uM at 5 to 10 degreeC incubated for 24 hrs by CETSA; type: cell-based
Chain of Polycomb protein EED (Homo sapiens) (O75530 2-441 limits assumed): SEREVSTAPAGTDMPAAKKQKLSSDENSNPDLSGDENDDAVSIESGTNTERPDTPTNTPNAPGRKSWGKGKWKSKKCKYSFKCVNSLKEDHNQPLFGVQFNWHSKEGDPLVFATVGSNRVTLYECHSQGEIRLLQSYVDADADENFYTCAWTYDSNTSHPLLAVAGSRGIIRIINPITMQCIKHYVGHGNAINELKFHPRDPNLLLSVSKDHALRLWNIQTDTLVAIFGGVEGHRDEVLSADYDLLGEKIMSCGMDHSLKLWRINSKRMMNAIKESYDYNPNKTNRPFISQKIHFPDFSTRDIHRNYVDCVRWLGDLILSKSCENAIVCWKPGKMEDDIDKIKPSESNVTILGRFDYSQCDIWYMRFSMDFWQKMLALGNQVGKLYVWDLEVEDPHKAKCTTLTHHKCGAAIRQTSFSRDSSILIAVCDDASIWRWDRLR

[3] = Cmax in ICR mouse at 10 mg/kg, po; type: ADME, organism-based; conditions: in vivo
MINO [4] = experiment: Induction of mitochondrial apoptosis pathway in human MINO cells assessed as upregulation of cytochrome C expression at 5 uM incubated for 24 hrs by Western blotting assay; type: functional, cell-based
[5] = Tmax in ICR mouse at 2 mg/kg, iv; type: ADME, organism-based; conditions: in vivo
[6] = MRT(0 to t) in ICR mouse at 2 mg/kg, iv; type: ADME, organism-based; conditions: in vivo
MINO [7] = experiment: Downregulation of RbAp48 protein expression in human MINO cells at 5 uM incubated for 24 hrs by Western blotting assay; type: functional, cell-based
MINO [8] = experiment: PROTAC activity at EZH2/E3 ligase in human MINO cells assessed as reduction in EZH2 protein level at 5 uM incubated for 24 hrs by Western blotting assay; type: cell-based; set-up: scale not given: the % may be the effect or the level left
[9] = Cmax in ICR mouse at 2 mg/kg, iv; type: ADME, organism-based; conditions: in vivo
[10] = Half-life in ICR mouse at 2 mg/kg, iv; type: ADME, organism-based; conditions: in vivo
[11] = Initial plasma concentration in ICR mouse at 2 mg/kg, iv; type: ADME, organism-based
MINO [12] = experiment: Downregulation of H3k27me3 protein expression in human MINO cells at 5 uM incubated for 24 hrs by Western blotting assay; type: functional, cell-based
[13] = Induction of cell cycle arrest in human MINO cells assessed as S phase cells at 5 uM incubated for 24 hrs by propidium iodide staining based flow cytometry assay (reference value: 25.19%); type: functional
MINO [14] = experiment: Downregulation of SUZ12 protein expression in human MINO cells at 5 uM incubated for 24 hrs by Western blotting assay; type: functional, cell-based
MINO [15] = experiment: Binding affinity to RbAp48 in human MINO cells assessed as increase in thermal stability at 5 uM at 5 to 10 degreeC incubated for 24 hrs by CETSA; type: cell-based
[16] = Induction of apoptosis in human MINO cells assessed as early apoptotic cells at 5 uM incubated for 24 hrs by Annexin V-FITC/PI staining based flow cytometry assay (reference value: 1.04%); type: functional
[17] = Induction of cell cycle arrest in human MINO cells assessed as G2/M phase cells at 5 uM incubated for 24 hrs by propidium iodide staining based flow cytometry assay (reference value: 7.26%); type: functional
[18] = Induction of apoptosis in human MINO cells assessed as necrotic cells at 5 uM incubated for 24 hrs by Annexin V-FITC/PI staining based flow cytometry assay (reference value: 0.74%); type: functional
[19] = Potency index, ratio of tazemetostat IC50 to test compound IC50 for antiproliferative activity against human MINO cells; type: functional
[20] = AUC(0 to infinity) in ICR mouse at 2 mg/kg, iv; type: ADME, organism-based; conditions: in vivo
[21] = AUC(0 to t) in ICR mouse at 10 mg/kg, po; type: ADME, organism-based; conditions: in vivo
[22] = Apparent volume of distribution in ICR mouse at 2 mg/kg, iv; type: ADME, organism-based; conditions: in vivo, read-out: Vz
[23] = Antiproliferative activity against human MINO cells by MTT assay; type: functional, cell-based
[24] = MRT(0 to infinity) in ICR mouse at 2 mg/kg, iv; type: ADME, organism-based; conditions: in vivo
[25] = MRT(0 to infinity) in ICR mouse at 10 mg/kg, po; type: ADME, organism-based; conditions: in vivo
[26] = Bioavailability in ICR mouse at 2 mg/kg, iv; type: ADME, organism-based; conditions: in vivo
MINO [27] = experiment: Downregulation of EZH2 protein expression in human MINO cells at 5 uM incubated for 24 hrs by Western blotting assay; type: functional, cell-based
MINO [28] = experiment: PROTAC activity at EZH2/E3 ligase in human MINO cells assessed as reduction in EZH2 protein level at 1 to 2.5 uM incubated for 24 hrs by Western blotting assay; type: cell-based; conditions: dose 1-2.5 µM
MINO [29] = experiment: Induction of mitochondrial apoptosis pathway in human MINO cells assessed as downregulation of bcl-2 expression at 5 uM incubated for 24 hrs by Western blotting assay; type: functional, cell-based
[30] = Induction of cell cycle arrest in human MINO cells assessed as G0/G1 phase cells at 5 uM incubated for 24 hrs by propidium iodide staining based flow cytometry assay (reference value: 67.56%); type: functional
OCI-Ly7 = experiment: Antiproliferative activity against human OCILY7 cells by MTT assay; type: functional, cell-based
[31] = AUC(0 to infinity) in ICR mouse at 10 mg/kg, po; type: ADME, organism-based; conditions: in vivo
[32] = Induction of apoptosis in human MINO cells assessed as late apoptotic cells at 5 uM incubated for 24 hrs by Annexin V-FITC/PI staining based flow cytometry assay (reference value: 8.29%); type: functional
MINO [33] = experiment: Downregulation of EED protein expression in human MINO cells at 5 uM incubated for 24 hrs by Western blotting assay; type: functional, cell-based
[34] = Induction of apoptosis in human MINO cells assessed as viable cells at 5 uM incubated for 24 hrs by Annexin V-FITC/PI staining based flow cytometry assay (reference value: 89.93%); type: functional; conditions: read-out: Activity
MINO [35] = experiment: Induction of mitochondrial apoptosis pathway in human MINO cells assessed as downregulation of procaspase-3 expression at 5 uM incubated for 24 hrs by Western blotting assay; type: functional, cell-based
[36] = Volume of distribution at steady state in ICR mouse at 2 mg/kg, iv; type: ADME, organism-based; conditions: in vivo, read-out: Vdss
[37] = target: Histone-lysine N-methyltransferase EZH2 (Homo sapiens) (UniProt Q15910); experiment: Binding affinity to EZH2 in human MINO cells assessed as increase in thermal stability at 5 uM at 5 to 10 degreeC incubated for 24 hrs by CETSA; type: cell-based
Chain of Histone-lysine N-methyltransferase EZH2 (Homo sapiens) (Q15910 whole entry, looked up): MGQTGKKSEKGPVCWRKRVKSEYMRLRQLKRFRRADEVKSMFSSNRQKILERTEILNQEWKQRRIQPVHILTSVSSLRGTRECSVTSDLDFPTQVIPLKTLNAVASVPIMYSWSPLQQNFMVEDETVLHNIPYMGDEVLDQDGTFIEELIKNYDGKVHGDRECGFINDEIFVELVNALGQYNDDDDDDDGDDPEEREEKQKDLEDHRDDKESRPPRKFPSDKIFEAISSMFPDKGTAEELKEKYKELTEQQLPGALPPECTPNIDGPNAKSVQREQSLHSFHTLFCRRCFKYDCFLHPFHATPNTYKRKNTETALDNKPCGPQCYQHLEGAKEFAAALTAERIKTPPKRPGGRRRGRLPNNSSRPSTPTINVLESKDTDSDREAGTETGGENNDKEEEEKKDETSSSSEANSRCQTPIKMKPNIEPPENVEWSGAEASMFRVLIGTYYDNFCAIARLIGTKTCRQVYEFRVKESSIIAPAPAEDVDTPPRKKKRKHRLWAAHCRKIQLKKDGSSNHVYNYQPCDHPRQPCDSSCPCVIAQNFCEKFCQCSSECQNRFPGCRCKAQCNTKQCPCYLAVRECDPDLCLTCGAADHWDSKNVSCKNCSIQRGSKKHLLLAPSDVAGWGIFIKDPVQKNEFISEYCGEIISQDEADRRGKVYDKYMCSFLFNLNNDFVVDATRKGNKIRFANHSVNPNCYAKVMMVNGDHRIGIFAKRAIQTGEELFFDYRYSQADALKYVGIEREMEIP

[38] = Half-life in ICR mouse at 10 mg/kg, po; type: ADME, organism-based; conditions: in vivo
MINO [39] = experiment: Induction of mitochondrial apoptosis pathway in human MINO cells assessed as downregulation of procaspase-9 expression at 5 uM incubated for 24 hrs by Western blotting assay; type: functional, cell-based
[40] = MRT(0 to t) in ICR mouse at 10 mg/kg, po; type: ADME, organism-based; conditions: in vivo
MINO [41] = experiment: PROTAC activity at EZH2/E3 ligase in human MINO cells assessed as reduction in EZH2 protein level incubated for 24 hrs by Western blotting assay; type: cell-based; conditions: dose 0.02-20 µM
[42] = Clearance in ICR mouse at 2 mg/kg, iv; type: ADME, organism-based; conditions: in vivo
MINO [43] = experiment: Induction of mitochondrial apoptosis pathway in human MINO cells assessed as upregulation of bax protein expression at 5 uM incubated for 24 hrs by Western blotting assay; type: functional, cell-based
[44] = AUC(0 to t) in ICR mouse at 2 mg/kg, iv; type: ADME, organism-based; conditions: in vivo
MINO [45] = experiment: Induction of mitochondrial apoptosis pathway in human MINO cells assessed as upregulation of cleaved PARP expression at 5 uM incubated for 24 hrs by Western blotting assay; type: functional, cell-based
[46] = target: Polycomb protein SUZ12 (Homo sapiens) (UniProt Q15022); experiment: Binding affinity to SUZ12 in human MINO cells assessed as increase in thermal stability at 5 uM at 5 to 10 degreeC incubated for 24 hrs by CETSA; type: cell-based
Chain of Polycomb protein SUZ12 (Homo sapiens) (Q15022 whole entry): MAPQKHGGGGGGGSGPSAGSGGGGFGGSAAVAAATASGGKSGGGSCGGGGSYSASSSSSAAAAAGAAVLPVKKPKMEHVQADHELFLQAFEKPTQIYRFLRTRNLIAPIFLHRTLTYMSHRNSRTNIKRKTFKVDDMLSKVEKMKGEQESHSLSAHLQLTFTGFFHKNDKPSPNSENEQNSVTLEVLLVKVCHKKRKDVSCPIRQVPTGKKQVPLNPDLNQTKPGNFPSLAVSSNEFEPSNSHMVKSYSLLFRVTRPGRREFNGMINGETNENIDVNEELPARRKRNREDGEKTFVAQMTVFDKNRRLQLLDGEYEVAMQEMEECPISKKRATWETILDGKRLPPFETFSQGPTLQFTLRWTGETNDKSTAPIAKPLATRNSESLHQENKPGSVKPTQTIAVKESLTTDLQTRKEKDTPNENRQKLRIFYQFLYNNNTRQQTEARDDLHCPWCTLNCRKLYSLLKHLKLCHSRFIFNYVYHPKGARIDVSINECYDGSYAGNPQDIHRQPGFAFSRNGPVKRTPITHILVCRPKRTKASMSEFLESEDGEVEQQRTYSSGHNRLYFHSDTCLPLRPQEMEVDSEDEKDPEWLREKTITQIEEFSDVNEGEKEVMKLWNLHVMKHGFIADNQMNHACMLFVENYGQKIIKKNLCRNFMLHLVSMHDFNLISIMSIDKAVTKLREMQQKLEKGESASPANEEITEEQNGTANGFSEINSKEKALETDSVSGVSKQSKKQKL

- Tmax [1]: 0.83 h
- Activity [2]: inactive
- Cmax [3]: 2980 ng/mL
- Tmax [5]: 0.42 h
- MRT last [6]: 9.7 h
- Cmax [9]: 7210 ng/mL
- half-life [10]: 21.9 h
- C0 [11]: 6500 ng/mL
- AUC(0-inf) [20]: 190000 ng·h/mL
- AUC(0-t) [21]: 29700 ng·h/mL
- Vd [22]: 0.329 L/kg
- MRT inf [24]: 31.4 h
- MRT inf [25]: 17.6 h
- bioavailability [26]: 6.05%
- IC50 (OCI-Ly7): 150 nM
- AUC(0-inf) [31]: 40500 ng·h/mL
- Vd [36]: 0.323 L/kg
- Activity [37]: Active
- half-life [38]: 11.7 h
- MRT last [40]: 8.87 h
- clearance [42]: 0.191 mL/min/kg
- AUC(0-t) [44]: 98400 ng·h/mL
- Activity [46]: inactive
SMILES: CCN(c1cc(-c2ccc(CN3CCN(C(=O)CC4CCC(CNc5cccc6c5C(=O)N(C5CCC(=O)NC5=O)C6=O)CC4)CC3)cc2)cc(C(=O)NCc2c(C)cc(C)[nH]c2=O)c1C)C1CCOCC1 (configuration not stated)
- Activity (MINO [4]): Active
- Activity (MINO [7]): Active
- Activity (MINO [8]): 100%
- Activity (MINO [12]): Active
- Activity [13]: 14.41%
- Activity (MINO [14]): Active
- Activity (MINO [15]): inactive
- Activity [16]: 4.89%
- Activity [17]: 6.11%
- Activity [18]: 2%
- Ratio IC50 [19]: 214
- IC50 [23]: 5 nM
- Activity (MINO [27]): Active
- Activity (MINO [28]): Active; Significant And Potent Activity Observed
- Activity (MINO [29]): Active
- Activity [30]: 79.47%
- Activity [32]: 57.55%
- Activity (MINO [33]): Active
- viability at 5 µM [34]: 35.6%
- Activity (MINO [35]): Active
- Activity (MINO [39]): Active
- Activity (MINO [41]): Dose-dependent-effect
- Activity (MINO [43]): Active
- Activity (MINO [45]): Active
